From US6867186B2, “Cell-permeable protein inhibitors of calpain” (New England Medical Center Hospital, priority 1997, dated 2005)
“Also recorded” adds a separate entry of the source. Like-named read-outs stand apart in the source and are kept apart here.

Legend:
gel filtered platelets = experiment: Thrombin-induced platelet aggregation (aggregometer); assay type: cell-based, human; settings: for effect on platelet aggregation: thrombin or SFLLR induced
Description: In one series of experiments, platelets were purified from […] on a SEPHAROSE 2B column in PIPES buffered saline containing glucose, pre-incubated with 45 μM calpastat or S-TIPPEY-ala for 30 minutes at 37° C., and placed in a cuvette in a BIODATA aggregometer. The aggregometer measures turbidity of the solution by nephlometry (light scatter). Aggregation was induced with thrombin (0.1 to 1 unit/ml) or the thrombin receptor agonist peptide SFLLR (SEQ ID NO:5). […] In contrast, S-TIPPEY-ala had no activity. A version of S-TIPPEYIN lacking the signal sequence similarly had no activity.
In another series of experiments, gel filtered platelets were obtained and tested as follows. Blood from healthy, aspirin-free volunteers was collected by venipuncture into 4% sodium citrate (9:1 v/v, final concentration 0.4%) and centrifuged at 200×g for 20 minutes to obtain platelet rich plasma (PRP). Following incubation with apyrase (4 units/ml for 5 minutes at room temperature), platelets were purified from PRP by gel-filtration at room temperature using a Sepharose 2B column equilibrated in PIPES buffer (25 mM PIPES pH 6.8, 140 mM NaCl, 4 mM KCl, and 0.1% glucose) (Hsu-Lin, et al., J. Biol. Chem. 259:9121-9126, 1984). Final gel filtered platelet concentrations were about 1.5×10^8 cells/ml.
Gel filtered platelets (250 μl aliquots at 1.6×10^8/ml) were incubated with the indicated concentration of calpastat or mutant calpastat-ala for either 20 or 30 minutes at 37° C. in the absence of calcium and stirring. To test peptidyl calpain inhibitors, platelets were preincubated with the indicated concentration of calpeptin, MDL, E64d, DMSO (vehicle control) or NH4Cl (cathepsin control) for 10 minutes at 37° C. Following incubation, platelets were recalcified (CaCl2, 2 mM) and stimulated with 0.05-1.0 unit/ml thrombin, while being stirred (1400 rpm) at 37° C. The sensitivity of platelet preparations to thrombin decreased over the course of a given experiment. The thrombin concentration used was to elicit robust aggregation and varied between 0.05 and 1.0 U/ml. Aggregation was measured using a Bio-Data lumi-aggregometer. Percent inhibition of aggregation was measured at 4 minutes following the onset of aggregation. The initial rate of aggregation during the first 15 seconds for treated vs. untreated samples was used to calculate the IC50 for each inhibitor.

μ-calpain = target: T1, μ-calpain (Sus scrofa, UniProt P35750); experiment: Fluorometric calpain assay, suc-LLVY-AMC substrate; assay type: biochemical, porcine
T1 construct: pure p-calpain (porcine erythrocyte) was obtained from Chemicon; purchased Chemicon; host or cells: porcine erythrocyte
T1 sequence (P35750 1-714): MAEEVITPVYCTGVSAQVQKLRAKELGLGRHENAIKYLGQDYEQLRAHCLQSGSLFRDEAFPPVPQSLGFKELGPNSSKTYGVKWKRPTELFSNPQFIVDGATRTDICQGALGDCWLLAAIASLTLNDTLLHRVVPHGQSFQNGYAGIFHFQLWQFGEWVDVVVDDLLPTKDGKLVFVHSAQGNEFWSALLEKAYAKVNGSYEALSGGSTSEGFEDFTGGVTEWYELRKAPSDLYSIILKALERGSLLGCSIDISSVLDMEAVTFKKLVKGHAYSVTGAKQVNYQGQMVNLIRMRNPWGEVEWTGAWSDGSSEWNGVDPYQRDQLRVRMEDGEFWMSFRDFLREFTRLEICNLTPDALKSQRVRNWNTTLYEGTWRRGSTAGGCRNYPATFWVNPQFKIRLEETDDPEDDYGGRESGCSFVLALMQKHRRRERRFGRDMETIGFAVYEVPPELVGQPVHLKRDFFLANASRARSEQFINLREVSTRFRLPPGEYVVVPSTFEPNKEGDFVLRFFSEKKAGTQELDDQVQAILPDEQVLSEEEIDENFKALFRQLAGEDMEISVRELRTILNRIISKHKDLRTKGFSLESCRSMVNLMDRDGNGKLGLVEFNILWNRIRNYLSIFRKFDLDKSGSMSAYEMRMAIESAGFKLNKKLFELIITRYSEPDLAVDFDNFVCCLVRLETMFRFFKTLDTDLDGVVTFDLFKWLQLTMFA
T1 sequence (P04574 1-266 partner): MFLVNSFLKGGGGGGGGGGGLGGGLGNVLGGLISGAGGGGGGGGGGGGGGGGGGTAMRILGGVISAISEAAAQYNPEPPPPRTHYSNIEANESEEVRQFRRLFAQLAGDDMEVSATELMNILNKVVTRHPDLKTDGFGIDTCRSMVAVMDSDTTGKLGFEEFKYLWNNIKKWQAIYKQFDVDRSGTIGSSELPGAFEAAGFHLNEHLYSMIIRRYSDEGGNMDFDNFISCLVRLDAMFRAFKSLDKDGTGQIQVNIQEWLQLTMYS
From the text: Unless otherwise noted, the materials used in the studies described below were obtained from commercial suppliers. Sepharose 2B was obtained from Pharmacia Biotech (Upsala, Sweden); pure p-calpain (porcine erythrocyte) was obtained from Chemicon; succinyl-LLVY-AMC (SEQ ID NO:7) was obtained from Bachem; A23187 was obtained from LC Labs; human alpha-thrombin was obtained from Hematologic Technologies (Essex Junction, VT); anti-P-selectin antibodies conjugated to phycoerythrin were obtained from Becton Dickinson (San Jose, Calif.); Oregon Green-phalloidin was obtained from Molecular Probes (Eugene, Oreg.). All other chemicals were ACS grade or better and were obtained from Sigma Chemical Company (St. Louis, Mo.).
To assess the ability of calpastat to inhibit calpain activity, a fluorometric calpain assay was performed. The assay determined specific peptidyl hydrolysis of the peptidyl 7-amino bond of suc-LLVY-AMC (SEQ ID NO:7) by calpain.
The assay was performed in a 0.5 ml reaction volume at 37° C. The reaction buffer contained 50 mM KC1, 10 mM Tris-HCl (pH 7.5), 1 mM EDTA, and 1 mM DTT. Two hundred μM suc-LLVY-AMC (SEQ ID NO:7) was added along with 5 mM CaCl2. Calpastat or S-TIPPEY-ala was then added at the given concentrations (FIG. 9). […] The initial rate of AMC production was measured by fluorimetry for the first few minutes. […]

| IC50 (gel filtered platelets; initial rate during first 15 seconds, NI=no inhibition, peptidyl inhibitors 10 min pre-incubation, read-out: IC50, initial rate of thrombin-induced platelet aggregation) | Substance | effect on platelet aggregation (gel filtered platelets) | effect on platelet aggregation (gel filtered platelets; listed as S-TIPPEY-ala) | inhibition of purified μ-calpain (μ-calpain; up to 10 μM, listed as S-TIPPEY-ala) | concentration of maximal inhibition of platelet aggregation (gel filtered platelets; 30 minutes pre-incubation at 37° C.) | IC50 (gel filtered platelets; no unit printed, read-out: IC50 of calpastat, initial rate of thrombin-induced aggregation) | IC50 (μ-calpain; 70 nM enzyme, 37° C., read-out: IC50, μ-calpain cleavage of suc-LLVY-AMC) |
| --- | --- | --- | --- | --- | --- | --- | --- |
| > 50 µM | AAVALLPAVLLALLAPEKLAERADAAAPEAAELLEKKTGV [Calpastat-ala] | no measurable effect | no activity | no inhibitory activity; also recorded: no inhibition | – | – | – |
| – | H-AAVALLPAVLLALLAPEKLGERDDTIPPEYRELLEKKTGV-OH [Calpastat] | inhibited platelet aggregation and secretion | – | – | 45 µM | 50 µM | 0.05 µM |
